Test results reported in patent US20230373985A1 (Origenis Gmbh, priority 2020, published 2023).

Key:
[1] = target: T1, wt human JAK1, catalytic site (Homo sapiens, UniProt P23458); assay: HTRF KinEASE assay, JAK1; format: biochemical; conditions: 2.5 μM ATP; read-out: IC50, Activity Toward JAK1
T1 construct: wt human JAK1, catalytic site; purchased ThermoFisher
Outline: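 Two-step HTRF KinEASE assay: compound, kinase/biotinylated TK substrate and ATP were incubated at least 30 min at room temperature. Antibody plus streptavidin-XL665 was then added and plates were read after 60 min. Inhibition was derived from emission ratios according to the kit protocol.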

[2] = target: T2, wt human TYK2, catalytic site (Homo sapiens, UniProt P29597); assay: HTRF KinEASE assay, TYK2; format: biochemical; conditions: 1 μM ATP; read-out: IC50, Activity Toward TYK2
T2 construct: wt human TYK2, catalytic site; purchased SignalChem
T2 sequence (P29597 897-1176 limits assumed): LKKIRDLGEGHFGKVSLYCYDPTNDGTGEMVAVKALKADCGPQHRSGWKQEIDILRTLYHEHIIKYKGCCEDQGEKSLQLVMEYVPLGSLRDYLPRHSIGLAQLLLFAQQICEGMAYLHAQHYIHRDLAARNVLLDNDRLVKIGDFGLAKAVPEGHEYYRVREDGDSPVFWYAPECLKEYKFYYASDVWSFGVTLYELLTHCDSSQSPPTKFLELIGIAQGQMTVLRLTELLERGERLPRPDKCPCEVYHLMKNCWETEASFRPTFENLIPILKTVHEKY
Outline: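 HTRF KinEASE-TK readout with 1 μM biotinylated TK substrate in 1× kinase buffer, ≥30 min at room temperature, then antibody/streptavidin-XL665 detection for 60 min. TYK2 at 2 nM with 1 μM ATP; JAK2 at 1 nM with 100 μM ATP. Analysis uses emission ratios.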

T1 sequence (P23458 875-1153 limits assumed): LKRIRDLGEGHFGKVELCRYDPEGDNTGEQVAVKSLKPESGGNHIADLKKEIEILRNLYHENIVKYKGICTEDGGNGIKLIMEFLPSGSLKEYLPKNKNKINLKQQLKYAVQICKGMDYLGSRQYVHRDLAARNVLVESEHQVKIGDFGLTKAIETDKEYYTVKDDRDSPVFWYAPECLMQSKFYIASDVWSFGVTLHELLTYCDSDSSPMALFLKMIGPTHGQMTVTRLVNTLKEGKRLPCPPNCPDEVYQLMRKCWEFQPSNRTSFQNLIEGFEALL

| SMILES | IC50 [1] | IC50 [2] |
| --- | --- | --- |
| CCc1cnnn1-c1ccc(Nc2nn(-c3c(Cl)cccc3Cl)nc2C(N)=O)cc1 [compound 126, 2-(2,6-dichlorophenyl)-5-((4-(5-ethyl-1H-1,2,3-triazol-1-yl)phenyl)amino)-2H-1,2,3-triazole-4-carboxamide] | < 0.01 µM | 0.01 to 0.1 µM |
| NC(=O)c1nn(-c2c(Cl)cccc2Cl)cc1Nc1ccc(N2CCCCC2=O)nc1 [compound 384, 1-(2,6-dichlorophenyl)-4-((6-(2-oxopiperidin-1-yl)pyridin-3-yl)amino)-1H-pyrazole-3-carboxamide] | 0.1 to 1 µM | 0.1 to 1 µM |
| COCCNC(=O)c1ccc(Nc2cn(-c3c(Cl)cccc3Cl)nc2C(N)=O)cc1 [compound 419, 1-(2,6-dichlorophenyl)-4-((4-((2-methoxyethyl)carbamoyl)phenyl)amino)-1H-pyrazole-3-carboxamide] | 0.01 to 0.1 µM | 0.01 to 0.1 µM |
| Cc1nc(C(F)(F)F)nn1-c1ccc(Nc2cn(-c3c(Cl)cccc3Cl)nc2C(N)=O)cc1 [compound 275, 1-(2,6-dichlorophenyl)-4-((4-(5-methyl-3-(trifluoromethyl)-1H-1,2,4-triazol-1-yl)phenyl)amino)-1H-pyrazole-3-carboxamide] | 0.01 to 0.1 µM | < 0.01 µM |
| Cc1ncnn1-c1ccc(Nc2nn(-c3c(Cl)cccc3Cl)nc2C(N)=O)nc1 [compound 156, 2-(2,6-dichlorophenyl)-5-((5-(5-methyl-1H-1,2,4-triazol-1-yl)pyridin-2-yl)amino)-2H-1,2,3-triazole-4-carboxamide] | 0.01 to 0.1 µM | 0.01 to 0.1 µM |
| CC(F)(F)c1nnnn1-c1ccc(Nc2cn(-c3c(Cl)cccc3Cl)nc2C(N)=O)cn1 [compound 460, 1-(2,6-dichlorophenyl)-4-((6-(5-(1,1-difluoroethyl)-1H-tetrazol-1-yl)pyridin-3-yl)amino)-1H-pyrazole-3-carboxamide] | 0.1 to 1 µM | 0.1 to 1 µM |
| CC(C)n1cc(Nc2cn(-c3c(Cl)cccc3Cl)nc2C(N)=O)cn1 [compound 378, 1-(2,6-dichlorophenyl)-4-((1-isopropyl-1H-pyrazol-4-yl)amino)-1H-pyrazole-3-carboxamide] | 0.1 to 1 µM | 0.01 to 0.1 µM |
| CC(C)c1ccn(-c2ccc(Nc3cn(-c4c(Cl)cccc4Cl)nc3C(N)=O)cc2)n1 [compound 263, 1-(2,6-dichlorophenyl)-4-((4-(3-isopropyl-1H-pyrazol-1-yl)phenyl)amino)-1H-pyrazole-3-carboxamide] | 0.1 to 1 µM | 0.1 to 1 µM |
| Cn1cc(Nc2cn(-c3c(Cl)cccc3Cl)nc2C(N)=O)nn1 [compound 380, 1-(2,6-dichlorophenyl)-4-((1-methyl-1H-1,2,3-triazol-4-yl)amino)-1H-pyrazole-3-carboxamide] | 0.1 to 1 µM | 0.1 to 1 µM |
| CC1(C)CN(C(=O)c2ccc(Nc3nn(-c4c(Cl)cccc4Cl)nc3C(N)=O)nc2)C1 [compound 165, 2-(2,6-dichlorophenyl)-5-((5-(3,3-dimethylazetidine-1-carbonyl)pyridin-2-yl)amino)-2H-1,2,3-triazole-4-carboxamide] | 0.1 to 1 µM | 0.01 to 0.1 µM |
| NC(=O)c1nn(-c2c(Cl)cccc2Cl)cc1Nc1ccc(-n2nncc2C(F)(F)F)cc1 [compound 438, 1-(2,6-dichlorophenyl)-4-((4-(5-(trifluoromethyl)-1H-1,2,3-triazol-1-yl)phenyl)amino)-1H-pyrazole-3-carboxamide] | 0.1 to 1 µM | 0.01 to 0.1 µM |
| Cc1cnc(C)c(-n2cc(Nc3cn(-c4c(Cl)cccc4Cl)nc3C(N)=O)cn2)n1 [compound 374, 1-(2,6-dichlorophenyl)-4-((1-(3,6-dimethylpyrazin-2-yl)-1H-pyrazol-4-yl)amino)-1H-pyrazole-3-carboxamide] | 0.1 to 1 µM | 0.1 to 1 µM |
| CN(C)Cc1nc(C(F)(F)F)nn1-c1ccc(Nc2cn(-c3c(Cl)cccc3Cl)nc2C(N)=O)cc1 [compound 297, 1-(2,6-dichlorophenyl)-4-((4-(5-((dimethylamino)methyl)-3-(trifluoromethyl)-1H-1,2,4-triazol-1-yl)phenyl)amino)-1H-pyrazole-3-carboxamide] | 0.1 to 1 µM | < 0.01 µM |
| Cc1nnnn1-c1ccc(Nc2nn(-c3c(Cl)cccc3Cl)nc2C(N)=O)nc1 [compound 134, 2-(2,6-dichlorophenyl)-5-((5-(5-methyl-1H-tetrazol-1-yl)pyridin-2-yl)amino)-2H-1,2,3-triazole-4-carboxamide] | 0.01 to 0.1 µM | 0.01 to 0.1 µM |
| CC(C)c1ncnn1-c1ccc(Nc2cn(-c3c(Cl)cccc3Cl)nc2C(N)=O)cc1 [compound 341, 1-(2,6-dichlorophenyl)-4-((4-(5-isopropyl-1H-1,2,4-triazol-1-yl)phenyl)amino)-1H-pyrazole-3-carboxamide] | 0.1 to 1 µM | 0.01 to 0.1 µM |
| Cn1cc(C(F)(F)F)nc1-c1ccc(Nc2nn(-c3c(Cl)cccc3Cl)nc2C(N)=O)nc1 [compound 144, 2-(2,6-dichlorophenyl)-5-((5-(1-methyl-4-(trifluoromethyl)-1H-imidazol-2-yl)pyridin-2-yl)amino)-2H-1,2,3-triazole-4-carboxamide] | 0.01 to 0.1 µM | 0.01 to 0.1 µM |
| Cn1cc(Nc2cn(-c3c(Cl)cccc3Cl)nc2C(N)=O)cn1 [compound 377, 1-(2,6-dichlorophenyl)-4-((1-methyl-1H-pyrazol-4-yl)amino)-1H-pyrazole-3-carboxamide] | 0.01 to 0.1 µM | 0.1 to 1 µM |
| CN1CCN(C(=O)c2ccc(Nc3cn(-c4c(Cl)cccc4Cl)nc3C(N)=O)nc2)CC1 [compound 370, 1-(2,6-dichlorophenyl)-4-((5-(4-methylpiperazine-1-carbonyl)pyridin-2-yl)amino)-1H-pyrazole-3-carboxamide] | 0.1 to 1 µM | 0.01 to 0.1 µM |
| NC(=O)c1nn(-c2c(Cl)cccc2Cl)cc1Nc1cnc(C(=O)N2CCOCC2)cn1 [compound 401, 1-(2,6-dichlorophenyl)-4-((5-(morpholine-4-carbonyl)pyrazin-2-yl)amino)-1H-pyrazole-3-carboxamide] | 0.1 to 1 µM | 0.1 to 1 µM |
| Cc1c(C#N)cnn1-c1ccc(Nc2cn(-c3c(Cl)cccc3Cl)nc2C(N)=O)cc1 [compound 253, 4-((4-(4-cyano-5-methyl-1H-pyrazol-1-yl)phenyl)amino)-1-(2,6-dichlorophenyl)-1H-pyrazole-3-carboxamide] | 0.1 to 1 µM | 0.1 to 1 µM |
| CCc1cnnn1-c1ccc(Nc2cn(-c3c(Cl)cccc3Cl)nc2C(N)=O)cc1 [compound 411, 1-(2,6-dichlorophenyl)-4-((4-(5-ethyl-1H-1,2,3-triazol-1-yl)phenyl)amino)-1H-pyrazole-3-carboxamide] | 0.01 to 0.1 µM | < 0.01 µM |
| NC(=O)c1nn(-c2c(Cl)cccc2Cl)nc1Nc1ccc(-n2cc3c(n2)CCOC3)cc1 [compound 111, 2-(2,6-Dichloro-phenyl)-5-[4-(6,7-dihydro-4H-pyrano[4,3-c]pyrazol-2-yl)-phenylamino]-2H-[1,2,3]triazole-4-carboxylic acid amide] | 0.1 to 1 µM | 0.1 to 1 µM |
| NC(=O)c1nn(-c2c(Cl)cccc2Cl)cc1Nc1ccc(-c2nnccc2Cl)cc1 [compound 67, 4-((4-(4-chloropyridazin-3-yl)phenyl)amino)-1-(2,6-dichlorophenyl)-1H-pyrazole-3-carboxamide] | 0.1 to 1 µM | 0.1 to 1 µM |
| Cn1cc(C(F)(F)F)nc1-c1ccc(Nc2cn(-c3c(Cl)cccc3Cl)nc2C(N)=O)nc1 [compound 433, 1-(2,6-dichlorophenyl)-4-((5-(1-methyl-4-(trifluoromethyl)-1H-imidazol-2-yl)pyridin-2-yl)amino)-1H-pyrazole-3-carboxamide] | 0.01 to 0.1 µM | 0.01 to 0.1 µM |
| Cc1nc2cc(Nc3cn(-c4c(Cl)cccc4Cl)nc3C(N)=O)ccc2n1C [compound 43, 1-(2,6-dichlorophenyl)-4-((1,2-dimethyl-1H-benzo[d]imidazol-5-yl)amino)-1H-pyrazole-3-carboxamide] | 0.1 to 1 µM | 0.1 to 1 µM |
| NC(=O)c1nn(-c2c(Cl)cccc2Cl)cc1Nc1ccc(C(=O)N2CCCC2)cn1 [compound 226, 1-(2,6-dichlorophenyl)-4-((5-(pyrrolidine-1-carbonyl)pyridin-2-yl)amino)-1H-pyrazole-3-carboxamide] | 0.1 to 1 µM | 0.01 to 0.1 µM |
| N#Cc1cccc(Cl)c1-n1cc(Nc2ccc(C(=O)N3CCOCC3)cc2)c(C(N)=O)n1 [compound 458, 1-(2-chloro-6-cyanophenyl)-4-((4-(morpholine-4-carbonyl)phenyl)amino)-1H-pyrazole-3-carboxamide] | 0.01 to 0.1 µM | < 0.01 µM |
| NC(=O)c1nn(-c2c(Cl)cccc2Cl)cc1Nc1ccc(C(=O)N2CCSCC2)cc1 [compound 467, 1-(2,6-dichlorophenyl)-4-((4-(thiomorpholine-4-carbonyl)phenyl)amino)-1H-pyrazole-3-carboxamide] | < 0.01 µM | < 0.01 µM |
| CN1CCC(Oc2ccc(Nc3cn(-c4c(Cl)cccc4Cl)nc3C(N)=O)cn2)CC1 [compound 405, 1-(2,6-dichlorophenyl)-4-((6-((1-methylpiperidin-4-yl)oxy)pyridin-3-yl)amino)-1H-pyrazole-3-carboxamide] | 0.1 to 1 µM | 0.1 to 1 µM |
